# ChEMBL document CHEMBL5346908, “Recent advances of mitochondrial complex I inhibitors for cancer therapy: Current status and future perspectives” (Eur J Med Chem, 2023)
# Tests used:
# [1] = target: T1, Receptor tyrosine-protein kinase erbB-2 (Homo sapiens, UniProt P04626); experiment: Inhibition of ERBB2 (unknown origin)
# [2] = target: T1, Receptor tyrosine-protein kinase erbB-2; experiment: Inhibition of ERBB2 (unknown origin) in human NCI-H1975 cells assessed as increase in mitochondrial ROS level incubated for 48 hrs by Western blot analysis
# [3] = Antiproliferative activity against mouse TA3/Ha cells assessed as reduction in cell growth; format: functional, cell-based
# [4] = tested on: MDA-MB-231; experiment: Inhibition of mitochondrial respiration in human MDA-MB-231 cells assessed as oxygen consumption rate incubated for 1 hr by Seahorse XF24 extracellular flux analyzer; format: functional, cell-based; conditions: MDA-MB-231, 1 h
# [5] = tested on: HCT-116; experiment: Inhibition of mitochondrial respiration in human HCT-116 cells assessed as oxygen consumption rate incubated for 1 hr by Seahorse XF24 extracellular flux analyzer; format: functional, cell-based; conditions: HCT-116, 1 h
# [6] = tested on: NCI-H460; experiment: Antiproliferative activity against human NCI-H460 cells assessed as reduction in cell viability incubated for 48 hrs by cell titer glow assay; format: functional, cell-based; conditions: NCI-H460, 48 h
# [7] = tested on: Melanoma cell line; experiment: Antiproliferative activity against human melanoma cells assessed as reduction in cell viability incubated for 72 hrs by CellTiter-Fluor reagent based fluorescence analysis; format: functional
# [8] = Antiproliferative activity against mouse L929 cells assessed as inhibition of cell growth incubated for 5 days by MTT assay; format: toxicity, cell-based
# [9] = tested on: HCT-116; experiment: Antiproliferative activity against human HCT-116 cells assessed as reduction in cell viability; format: functional, cell-based
# [10] = Antiproliferative activity against human DFCI024 cells assessed as reduction in cell growth incubated for 72 hrs by Cell-titer glo assay; format: functional, cell-based; conditions: DFCI024, 72 h
# [11] = tested on: NCI-H1581; experiment: Antiproliferative activity against human NCI-H1581 cells assessed as reduction in cell growth incubated for 72 hrs by Cell-titer glo assay; format: functional, cell-based; conditions: NCI-H1581, 72 h
# [12] = tested on: NCI-H1693; experiment: Antiproliferative activity against human NCI-H1693 assessed as reduction in cell growth incubated for 72 hrs by Cell-titer glo assay; format: functional, cell-based; conditions: NCI-H1693, 72 h
# [13] = tested on: NCI-H157; experiment: Antiproliferative activity against human NCI-H157 assessed as reduction in cell growth incubated for 72 hrs by Cell-titer glo assay; format: functional, cell-based; conditions: NCI-H157, 72 h
# [14] = tested on: MDA-MB-231; experiment: Antiproliferative activity against human MDA-MB-231 cells assessed as reduction in cell viability incubated for 72 hrs by cell-titer glo assay; format: functional, cell-based; conditions: MDA-MB-231, 72 h
# [15] = Inhibition of NADH-ubiquinone oxidoreductase (unknown origin) binding to ETC complex 1; parameters: species or system Homo sapiens
# [16] = tested on: MDA-MB-435; experiment: Antiproliferative activity against human MDA-MB-435 cells assessed as reduction in cell viability incubated for 72 hrs by cell-titer glo assay; format: functional, cell-based; conditions: MDA-MB-435, 72 h
# [17] = Inhibition of mitochondrial respiration in Sprague-Dawley rat liver; format: functional, tissue-based
# [18] = tested on: L1210; experiment: Antitumor activity against mouse L1210 cells xenografted in […] model assessed as prolongation of life span relative to control; format: functional
# [19] = tested on: HEK293; experiment: Cytotoxicity against human HEK293 cells assessed as reduction in cell proliferation incubated for 24 hrs by MTT assay; format: functional, cell-based; conditions: HEK293, 24 h
# [20] = Cytotoxicity against Trichoplusia ni BTI-TN-5B1-4 cells assessed as reduction cell proliferation incubated for 24 hrs by MTT assay; format: toxicity, cell-based
# [21] = tested on: HT-29; experiment: Inhibition of colony formation of human HT-29 cells incubated for 7 days in absence of glucose by crystal violet staining based analysis; format: functional, cell-based; conditions: HT-29, 168 h
# [22] = tested on: HT-29; experiment: Inhibition of colony formation of human HT-29 cells assessed as reduction in colonies incubated for 7 days by crystal violet staining based analysis; format: functional, cell-based; conditions: HT-29, 168 h
# [23] = tested on: HepG2; experiment: Cytotoxicity against human HepG2 cells assessed as reduction cell proliferation incubated for 24 hrs by MTT assay; format: functional, cell-based; conditions: HepG2, 24 h
# [24] = Oral bioavailability in human; format: ADME, organism-based; conditions: in vivo
# [25] = tested on: MCF7; experiment: Antiproliferative activity against human MCF7 cells assessed as reduction in cell viability incubated for 72 hrs by MTT assay; format: functional, cell-based; conditions: MCF7, 72 h
# [26] = tested on: HL-60; experiment: Antiproliferative activity against human HL-60 cells assessed as cell growth inhibition incubated for 72 hrs by MTT assay; format: functional, cell-based; conditions: HL-60, 72 h
# [27] = tested on: KG-1; experiment: Antiproliferative activity against human KG-1 cells assessed as cell growth inhibition incubated for 72 hrs by MTT assay; format: functional, cell-based; conditions: KG-1, 72 h
# [28] = tested on: THP-1; experiment: Antiproliferative activity against human THP-1 cells assessed as cell growth inhibition incubated for 72 hrs by MTT assay; format: functional, cell-based; conditions: THP-1, 72 h
# [29] = tested on: NSCLC; experiment: Antitumor activity against human NSCLC cells xenografted in orthotopic lung tumor mouse model assessed as reduction in tumor growth incubated for 8 weeks; format: functional; conditions: 1344 h
# [30] = tested on: NSCLC; experiment: Antiproliferative activity against human NSCLC cells assessed as reduction in cell viability incubated for 72 hrs by MTT assay; format: functional, cell-based
# [31] = tested on: A-375; experiment: Antiproliferative activity against human A-375 cells assessed as inhibition of cell growth measured after 72 hrs by CCK8 assay; format: functional, cell-based; conditions: A-375, 72 h
# [32] = Half life in BALB/c mouse plasma at 100 mg/kg, ip; format: ADME, organism-based
# [33] = tested on: 4T1; experiment: Antitumor activity against mouse 4T1 cells xenografted in BALB/c mouse model assessed as peak tumor level at 100 mg/kg, ip measured after 4 hrs; format: functional
# [34] = tested on: 4T1; experiment: Antitumor activity against mouse 4T1 cells xenografted in BALB/c mouse model assessed as peak plasma level at 100 mg/kg, ip; format: functional
# [35] = Half life in tumor of BALB/c mouse model xenografted with 4T1 cells at 100 mg/kg, ip measured after 4 hrs; format: ADME, organism-based
# T1 sequence (P04626 whole entry): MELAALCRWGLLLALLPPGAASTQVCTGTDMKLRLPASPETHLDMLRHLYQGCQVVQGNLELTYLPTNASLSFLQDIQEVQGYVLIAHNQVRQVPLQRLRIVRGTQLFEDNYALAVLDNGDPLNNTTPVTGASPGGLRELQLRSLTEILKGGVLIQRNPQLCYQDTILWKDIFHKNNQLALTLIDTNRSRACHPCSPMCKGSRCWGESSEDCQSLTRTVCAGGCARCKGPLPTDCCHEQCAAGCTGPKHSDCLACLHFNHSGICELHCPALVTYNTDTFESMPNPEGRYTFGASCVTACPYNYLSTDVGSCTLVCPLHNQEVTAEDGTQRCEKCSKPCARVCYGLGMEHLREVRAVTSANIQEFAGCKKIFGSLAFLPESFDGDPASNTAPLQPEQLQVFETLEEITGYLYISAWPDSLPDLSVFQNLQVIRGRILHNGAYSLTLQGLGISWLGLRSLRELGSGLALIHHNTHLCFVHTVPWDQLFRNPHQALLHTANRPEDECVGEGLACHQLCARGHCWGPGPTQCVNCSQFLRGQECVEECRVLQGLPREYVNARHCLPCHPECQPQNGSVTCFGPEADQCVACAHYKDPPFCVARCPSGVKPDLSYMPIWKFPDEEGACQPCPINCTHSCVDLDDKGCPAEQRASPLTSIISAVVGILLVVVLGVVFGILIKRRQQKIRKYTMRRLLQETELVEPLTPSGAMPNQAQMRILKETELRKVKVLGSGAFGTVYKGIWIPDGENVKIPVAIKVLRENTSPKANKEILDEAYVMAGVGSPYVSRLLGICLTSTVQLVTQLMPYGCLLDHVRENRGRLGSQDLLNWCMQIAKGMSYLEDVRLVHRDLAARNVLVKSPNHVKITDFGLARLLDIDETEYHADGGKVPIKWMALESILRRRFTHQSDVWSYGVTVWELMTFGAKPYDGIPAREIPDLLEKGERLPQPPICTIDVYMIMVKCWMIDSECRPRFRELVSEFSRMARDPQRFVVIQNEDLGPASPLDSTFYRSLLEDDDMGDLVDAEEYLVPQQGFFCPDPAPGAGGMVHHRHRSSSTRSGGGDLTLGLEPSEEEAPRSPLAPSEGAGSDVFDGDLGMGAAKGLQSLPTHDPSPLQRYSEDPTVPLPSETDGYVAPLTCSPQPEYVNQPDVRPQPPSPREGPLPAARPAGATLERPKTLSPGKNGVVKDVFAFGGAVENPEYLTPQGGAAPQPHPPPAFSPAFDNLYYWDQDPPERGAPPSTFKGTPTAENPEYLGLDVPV
structure (smiles),measurement,setting,value
FC(F)(F)c1ccc(/C=C/c2nc(COc3ccc(CCCCn4ccnn4)cc3)co2)cc1 [MUBRITINIB],IC50,[1],51 nM
same,IC50,[2],80 nM
CC1(C)C=CC(=O)c2c(O)c3c(c(O)c21)CC=CC3,IC50,[3],13000 nM
O[C@@H](CNC[C@H](O)[C@H]1CCc2cc(F)ccc2O1)[C@@H]1CCc2cc(F)ccc2O1,IC50,[4],2100 nM
same,IC50,[5],900 nM
Cc1cc(-c2nc(-c3ccc(OC(F)(F)F)cc3)no2)nn1Cc1ccnc(N2CCN(C3CC3)CC2)c1,EC50,[6],3 nM
same,IC50,[7],2 nM
Cc1cc(OCc2nnc(SC3CCCC3)n2-c2cccnc2)ccc1-c1ccc(S(C)(=O)=O)cc1,IC50 at 5 days,[8],1.3 nM
same,IC50,[9],450 nM
CCCCCn1c(=O)[nH]c2cc(C(=O)N3CCN(c4ccc([N+](=O)[O-])cc4)CC3)ccc2c1=O,IC50,[10],200 nM
same,IC50,[11],200 nM
same,IC50,[12],200 nM
same,IC50,[13],200 nM
Cc1ccc(Sc2cccc3[nH]c4nc(N)nc(N)c4c23)cc1,IC50,[14],6900 nM
same,Ki,[15],840 nM
same,IC50,[16],11900 nM
C=C(C)[C@H]1Cc2c(ccc3c2O[C@@H]2COc4cc(OC)c(OC)cc4[C@@H]2C3=O)O1 [ROTENONE],IC50 at 5 days,[8],16.1 nM
same,IC50,[17],19.3 nM
CCCCCCCCCC[C@H](O)[C@H]1CC[C@H]([C@H]2CC[C@H]([C@H](O)CCCCCCCCCC[C@@H](O)CC3=C[C@H](C)OC3=O)O2)O1 [REL-SQUAMOCIN-G],IC50,[17],9.5 nM
same,Activity,[18],38%
C/C=C(\C)[C@H](O)[C@H](C)/C=C(C)/C=C/C/C(C)=C/Cc1nc(OC)c(OC)c(O)c1C [PIERICIDIN A],IC50,[19],229000 nM
same,IC50 at 24 h,[20],61 nM
same,IC50,[21],7.7 nM
same,IC50,[22],6.4 nM
same,IC50,[23],234000 nM
N=C(NC(=N)N1CCCC1)Nc1ccc(OC(F)(F)F)cc1 [LIXUMISTAT],bioavailability,[24],72.9%
CCCCCC[C@H](O)CCC[C@H](O)[C@H]1CC[C@H]([C@H]2CC[C@H]([C@H](O)CCCCCCCCCCCCC3=C[C@H](C)OC3=O)O2)O1 [SQUAMOCIN],IC50,[25],0.8 ng/mL
Cc1nc(-c2nc(-c3ccc(OC(F)(F)F)cc3)no2)nn1Cc1cccc(N2CCC(S(C)(=O)=O)CC2)c1,EC50,[26],3 nM
same,EC50,[27],3 nM
same,EC50,[28],3 nM
O=C(NCCCCCCCCCC[P+](c1ccccc1)(c1ccccc1)c1ccccc1)c1nn(Cc2ccc(Cl)cc2Cl)c2ccccc12,ED50,[29],7.5 µmol/kg
same,IC50,[30],740 nM
CCCCc1ccc(N)c(C)c1,IC50,[31],100000 nM
same,half-life,[32],1.1 h
same,Activity,[33],11 µM
same,Activity,[34],25 µM
same,half-life,[35],1.2 h
